Assay results published in PMC9030223, “MBP-11901 Inhibits Tumor Growth of Hepatocellular Carcinoma through Multitargeted Inhibition of Receptor Tyrosine Kinases” (Cancers, 2022).

What was measured:
[1] = test system: Huh-7 xenograft tumor; assay: Huh-7 subcutaneous xenograft; assay type: in vivo, mouse; conditions: Huh-7 subcutaneously implanted model
Text: (§1) We further verified the effectiveness of MBP-11901 by constructing a mouse model in which Hep3B and Huh-7 were subcutaneously transplanted in addition to the human liver cancer cell line HepG2. In the case of Hep3B, the administration was initiated at a tumor volume of about 300 mm^3, once every 2 d, and the experiment was terminated after a total of 12 administrations (Figure S5). […] In contrast, tumors had completely disappeared in 1 out of 6 animals in the MBP-11901 group; 1 had only a trace of a tumor measuring approximately 30 mm^3, whereas the average tumor volume in the 6 animals was approximately 100 mm^3. […] Unlike Nexavar®, there were no side-effects relating to drug resistance or rapid tumor growth.

[2] = molecular target: T1, FLT3 (Homo sapiens, UniProt P36888); assay: KINOMEscan competition binding / KdELECT
T1 construct: purchased Eurofins DiscoverX Corporation
Protocol: (§2) The profiling of MBP-11901 against a panel of 468 kinases was performed by DiscoverX using KINOMEscan technology, an active-site-dependent competition-binding assay (Eurofins DiscoverX Corporation, San Diego, CA, USA). Binding constants (Kd) were calculated by DiscoverX using KdELECT technology, a widely used assay for comparing selectivity across the kinome. The DiscoverX platform reports the thermodynamic Kd to facilitate direct comparison of inhibitor affinity across the kinome, independent of ATP concentration.

[3] = molecular target: T2, MAP4K2 (Homo sapiens, UniProt Q12851); assay: KINOMEscan competition binding / KdELECT
T2 construct: purchased Eurofins DiscoverX Corporation
T2 sequence (Q12851 whole entry): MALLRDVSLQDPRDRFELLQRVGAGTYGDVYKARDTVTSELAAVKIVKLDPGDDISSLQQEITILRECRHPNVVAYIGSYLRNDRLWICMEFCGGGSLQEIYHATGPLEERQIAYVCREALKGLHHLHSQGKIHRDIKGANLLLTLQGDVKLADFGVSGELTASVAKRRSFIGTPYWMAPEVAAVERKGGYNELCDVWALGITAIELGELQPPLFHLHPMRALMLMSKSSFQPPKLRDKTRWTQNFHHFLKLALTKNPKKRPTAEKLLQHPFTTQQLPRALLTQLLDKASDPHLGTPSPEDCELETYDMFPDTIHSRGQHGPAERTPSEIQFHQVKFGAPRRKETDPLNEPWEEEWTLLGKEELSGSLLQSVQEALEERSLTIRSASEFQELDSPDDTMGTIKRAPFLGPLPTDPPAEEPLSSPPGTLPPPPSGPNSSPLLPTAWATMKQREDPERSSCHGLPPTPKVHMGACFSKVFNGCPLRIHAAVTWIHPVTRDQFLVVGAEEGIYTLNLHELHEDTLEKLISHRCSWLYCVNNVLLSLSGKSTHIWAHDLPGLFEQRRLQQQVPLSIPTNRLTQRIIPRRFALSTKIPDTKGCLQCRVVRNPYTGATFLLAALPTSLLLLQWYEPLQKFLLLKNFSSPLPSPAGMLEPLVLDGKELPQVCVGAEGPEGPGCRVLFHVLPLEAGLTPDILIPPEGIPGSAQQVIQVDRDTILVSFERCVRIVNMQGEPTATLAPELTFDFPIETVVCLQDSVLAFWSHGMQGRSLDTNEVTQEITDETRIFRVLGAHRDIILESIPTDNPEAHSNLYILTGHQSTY
Protocol: as §2

[4] = molecular target: T3, MEK5 (Homo sapiens, UniProt Q13163); assay: KINOMEscan competition binding / KdELECT
T3 construct: purchased Eurofins DiscoverX Corporation
T3 sequence (Q13163 whole entry): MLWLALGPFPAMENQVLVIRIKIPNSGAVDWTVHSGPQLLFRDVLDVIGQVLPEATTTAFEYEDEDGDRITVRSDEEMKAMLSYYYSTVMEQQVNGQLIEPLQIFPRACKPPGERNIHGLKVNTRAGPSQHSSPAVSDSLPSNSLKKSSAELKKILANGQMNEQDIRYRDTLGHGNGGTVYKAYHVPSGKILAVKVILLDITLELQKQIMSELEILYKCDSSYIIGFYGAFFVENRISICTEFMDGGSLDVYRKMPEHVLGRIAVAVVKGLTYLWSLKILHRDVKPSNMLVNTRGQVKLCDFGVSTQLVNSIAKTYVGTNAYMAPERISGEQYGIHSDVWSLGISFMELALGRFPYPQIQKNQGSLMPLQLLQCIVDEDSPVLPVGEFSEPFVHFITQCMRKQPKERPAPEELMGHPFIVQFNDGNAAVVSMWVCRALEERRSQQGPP
Protocol: as §2

[5] = molecular target: T4, VEGFR2 (Homo sapiens, UniProt P35968); assay: KINOMEscan competition binding / KdELECT
T4 construct: purchased Eurofins DiscoverX Corporation
T4 sequence (P35968 20-1356): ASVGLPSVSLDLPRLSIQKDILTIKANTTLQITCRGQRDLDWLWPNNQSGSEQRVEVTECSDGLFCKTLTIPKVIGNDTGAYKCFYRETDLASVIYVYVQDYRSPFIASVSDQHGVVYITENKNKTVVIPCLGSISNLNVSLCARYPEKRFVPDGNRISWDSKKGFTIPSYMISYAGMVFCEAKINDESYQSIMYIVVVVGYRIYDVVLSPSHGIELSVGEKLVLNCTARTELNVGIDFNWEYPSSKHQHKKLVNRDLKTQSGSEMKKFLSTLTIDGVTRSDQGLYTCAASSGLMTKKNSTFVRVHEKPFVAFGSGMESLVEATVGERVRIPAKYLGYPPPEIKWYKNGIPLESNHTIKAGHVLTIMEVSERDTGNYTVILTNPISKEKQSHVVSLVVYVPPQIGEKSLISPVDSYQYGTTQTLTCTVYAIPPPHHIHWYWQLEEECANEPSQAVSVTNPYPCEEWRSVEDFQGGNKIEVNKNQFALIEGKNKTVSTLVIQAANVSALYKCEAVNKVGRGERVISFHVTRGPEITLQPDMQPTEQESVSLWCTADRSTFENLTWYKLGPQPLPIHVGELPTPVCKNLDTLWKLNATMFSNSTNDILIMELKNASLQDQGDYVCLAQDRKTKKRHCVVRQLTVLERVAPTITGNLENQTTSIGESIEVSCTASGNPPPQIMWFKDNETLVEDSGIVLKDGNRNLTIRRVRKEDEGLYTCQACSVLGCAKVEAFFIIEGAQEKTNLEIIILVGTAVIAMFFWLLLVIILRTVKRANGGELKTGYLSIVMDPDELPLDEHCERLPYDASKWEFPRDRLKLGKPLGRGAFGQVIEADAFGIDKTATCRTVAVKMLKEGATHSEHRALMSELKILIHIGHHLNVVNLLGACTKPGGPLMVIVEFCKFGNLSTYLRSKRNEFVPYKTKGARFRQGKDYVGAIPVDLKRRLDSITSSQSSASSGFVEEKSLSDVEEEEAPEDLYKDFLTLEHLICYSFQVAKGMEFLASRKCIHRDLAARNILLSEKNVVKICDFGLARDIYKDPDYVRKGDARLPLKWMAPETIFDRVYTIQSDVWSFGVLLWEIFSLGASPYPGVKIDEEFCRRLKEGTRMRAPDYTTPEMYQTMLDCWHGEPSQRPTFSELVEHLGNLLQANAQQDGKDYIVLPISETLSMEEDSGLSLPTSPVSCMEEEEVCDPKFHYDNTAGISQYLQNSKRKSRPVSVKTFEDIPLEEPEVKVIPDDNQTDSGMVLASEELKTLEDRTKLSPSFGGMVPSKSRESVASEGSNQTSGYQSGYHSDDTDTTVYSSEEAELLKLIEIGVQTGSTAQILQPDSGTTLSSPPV
Protocol: as §2

[6] = molecular target: T5, PDGFRβ (Homo sapiens, UniProt P09619); assay: KINOMEscan competition binding / KdELECT
T5 construct: purchased Eurofins DiscoverX Corporation
T5 sequence (P09619 33-1106): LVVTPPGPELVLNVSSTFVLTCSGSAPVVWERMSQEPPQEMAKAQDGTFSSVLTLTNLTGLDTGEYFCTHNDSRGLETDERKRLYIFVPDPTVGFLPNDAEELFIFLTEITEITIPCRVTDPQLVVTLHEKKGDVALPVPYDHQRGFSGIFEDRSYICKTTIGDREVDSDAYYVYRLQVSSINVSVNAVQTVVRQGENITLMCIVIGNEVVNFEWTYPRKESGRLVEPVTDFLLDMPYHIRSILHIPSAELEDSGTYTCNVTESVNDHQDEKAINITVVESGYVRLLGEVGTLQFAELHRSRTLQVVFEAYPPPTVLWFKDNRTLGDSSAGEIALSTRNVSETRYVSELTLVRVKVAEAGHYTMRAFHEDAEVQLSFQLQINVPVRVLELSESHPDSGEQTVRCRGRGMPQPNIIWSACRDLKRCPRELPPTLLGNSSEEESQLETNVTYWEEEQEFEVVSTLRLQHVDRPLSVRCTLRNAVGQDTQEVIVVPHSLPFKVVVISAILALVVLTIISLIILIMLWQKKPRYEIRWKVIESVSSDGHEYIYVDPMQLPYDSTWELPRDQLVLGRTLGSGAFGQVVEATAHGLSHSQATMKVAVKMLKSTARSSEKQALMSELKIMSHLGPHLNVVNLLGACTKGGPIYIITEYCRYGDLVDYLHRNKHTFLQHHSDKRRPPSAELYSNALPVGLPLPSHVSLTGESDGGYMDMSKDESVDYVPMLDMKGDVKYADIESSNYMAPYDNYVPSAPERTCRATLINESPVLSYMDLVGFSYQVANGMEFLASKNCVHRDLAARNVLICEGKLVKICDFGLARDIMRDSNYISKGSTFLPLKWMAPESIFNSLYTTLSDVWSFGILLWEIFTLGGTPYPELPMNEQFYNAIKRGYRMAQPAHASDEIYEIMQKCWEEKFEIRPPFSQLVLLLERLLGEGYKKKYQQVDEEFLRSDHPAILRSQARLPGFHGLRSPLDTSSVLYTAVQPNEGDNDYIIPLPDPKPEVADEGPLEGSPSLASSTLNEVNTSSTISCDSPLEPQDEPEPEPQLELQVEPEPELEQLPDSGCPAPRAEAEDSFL
Protocol: as §2

[7] = test system: Hep3B xenograft tumor; assay: Hep3B subcutaneous xenograft; assay type: in vivo, mouse; conditions: once every 2 d, 12 administrations
Text: as §1

[8] = test system: HepG2 cells; assay: JC-1 mitochondrial membrane potential assay; assay type: cell-based, human
Protocol: Alterations in MMP were investigated utilizing the cationic dye tetraethylbenzimidazolylcarbocyanine iodide (JC-1) according to the manufacturer’s instructions (Cat. ab113850, Abcam, Cambridge, MA, USA). HepG2 cells were seeded in a 35 mm^2 dish at a density of 7.5 × 10^5 cells/dish and incubated for 24 h. Cells were treated with MBP-11901 for 2 h and media was changed with fresh one. Briefly, after 2 d incubation, cells were washed with 1× dilution buffer, and incubated with 1 μM JC-1 in 1× dilution buffer for 30 min at 37 °C. Cells were then washed 3 times with 1× dilution buffer. Fluorescence was measured under a fluorescence microscope (ECLIPSE Ti, Nikon, Melville, NY, USA) using an excitation filter of 530 nm ± 15 nm and an emission filter of 590 nm ± 17.5 nm.

[9] = molecular target: T6, FLT3(D835Y) (Homo sapiens, UniProt P36888, D835Y); assay: KINOMEscan competition binding; conditions: 10000 nM; lower = stronger binding; read-out: % Control
T6 construct: purchased Eurofins DiscoverX Corporation
Protocol: as §2

[10] = molecular target: T7, FLT3(D835V) (Homo sapiens, UniProt P36888, D835V); assay: KINOMEscan competition binding; conditions: 10000 nM; lower = stronger binding; read-out: % Control
T7 construct: purchased Eurofins DiscoverX Corporation
Protocol: as §2

[11] = molecular target: T8, FLT3(K663Q) (Homo sapiens, UniProt P36888, K663Q); assay: KINOMEscan competition binding; conditions: 10000 nM; lower = stronger binding; read-out: % Control
T8 construct: purchased Eurofins DiscoverX Corporation
Protocol: as §2

[12] = molecular target: T9, FLT3- autoinhibited (Homo sapiens, UniProt P36888); assay: KINOMEscan competition binding; conditions: 10000 nM; lower = stronger binding; read-out: % Control
T9 construct: purchased Eurofins DiscoverX Corporation
Protocol: as §2

[13] = molecular target: T10, FLT3(N841I) (Homo sapiens, UniProt P36888, N841I); assay: KINOMEscan competition binding; conditions: 10000 nM; lower = stronger binding; read-out: % Control
T10 construct: purchased Eurofins DiscoverX Corporation
Protocol: as §2

[14] = molecular target: T11, FLT3(D835H) (Homo sapiens, UniProt P36888, D835H); assay: KINOMEscan competition binding; conditions: 10000 nM; lower = stronger binding; read-out: % Control
T11 construct: purchased Eurofins DiscoverX Corporation
Protocol: as §2

[15] = test system: MDA-MB-231; assay: CCK-8 cell proliferation/cytotoxicity assay; assay type: cell-based; conditions: Homo sapiens, MDA-MB-231, 24 h
[16] = test system: phosphorylation of FLT3, VEGFR2, c-KIT, PDGFRβ and downstream signals in HepG2 cells; assay: Western blot of kinase phosphorylation; assay type: cell-based, human; conditions: HepG2, exposure 10 to 120 min, concentration-dependent
Protocol: HepG2 cells were seeded in a 60 mm^2 culture dish at a density of 1.5 × 10^6 cells/dish and incubated for 24 h. […] Cells were harvested and protein extraction and Western blotting methods were performed as previously described. Membranes were incubated using the following diluted primary antibodies; PARP (1:1000 dilution), caspase-3 (1:1000 dilution), cleaved caspase-3 (1:1000 dilution), pFLT3 (1:500 dilution), Ras (1:1000 dilution), pc-Raf (1:1000 dilution), pMEK1/2 (1:1000 dilution), pERK1/2 (1:1000 dilution), pAKT (1:1000 dilution), pmTOR (1:1000 dilution), pVEGFR2 (1:1000 dilution), pPDGFR β (1:2000 dilution), and β-actin (1:1000 dilution) in Tris-HCl-based buffer containing 0.2% Tween-20 (T1027, Biosesang, Seongnam, Korea) (TBS-T; pH 7.5). Membranes were then incubated with horseradish-conjugated secondary antibodies (1:5000, Cell Signaling Technologies, Beverly, MA, USA) for 1 h at 25 °C. After washing with TBS-T, immunoreactive bands were visualized using the chemiluminescence western imaging system (Supernova-Q1800TM, Centronics, Daejeon, Korea). Band intensities were measured using ImageJ (Version 1.50i; US National Institutes of Health, Bethesda, MD, USA) and were normalized to β-actin.

[17] = 10000 nM, lower = stronger binding, read-out: % Control

In the case of `NCC(N)C(=O)Nc1ccc(-c2nc3ccccc3s2)cc1` (centres unmarked) [MBP-11901], the tumor disappearance [1] is reported as “did not result in tumor disappearance”, the tumor weight [1] is reported as “significantly reduced” and the remaining binding at 10 µM [2, 17] is reported as 16%. The Kd ([2]; FLT3, mean ± S.D. (n = 2)) was 0.295 ± 0.005 µM, the remaining binding at 10 µM [3, 17] was 8.6% and the Kd ([3]; MAP4K2, mean ± S.D. (n = 2)) was 1.1 µM. The remaining binding at 10 µM [4, 17] was 3.3%, the Kd ([4]; MEK5) was greater than 30 µM and the remaining binding at 10 µM [5, 17] was 30%. The Kd ([5]; VEGFR2, mean ± S.D. (n = 2)) was 3.55 ± 0.25 µM, the remaining binding at 10 µM [6, 17] was 33% and the Kd ([6]; PDGFRβ, mean ± S.D. (n = 2)) was 4 ± 0.22 µM. The “animals in which tumors had completely disappeared” value [7] was 1 out of 6, the average tumor volume ([7]; start about 300 mm^3, saline approx. 1400 mm^3) was “approximately 100 mm^3” and the “mitochondrial potential (JC-1)” value [8] was “decrease in mitochondrial potential”. For the same molecule, the remaining binding at 10 µM [9] was 11%, the remaining binding at 10 µM [10] was 1.6% and the remaining binding at 10 µM [11] was 7.5%. The remaining binding at 10 µM [12] was 19%, the remaining binding at 10 µM [13] was 20% and the remaining binding at 10 µM [14] was 33%. For the same molecule, the IC50 [15] was 62 ± 6.5 µM and the kinase phosphorylation [16] was “inhibited”.
